Measurements published in US20090081786A1, “Peptide sequences for modulation of protein kinase C” (priority 2006, published 2009).

Legend:
annexin V/δ-PKC complex = experiment: co-immunoprecipitation of annexin V/δ-PKC complex from CHO cells; type: cell-based, hamster
Protocol: The complexes were immunoprecipitated with anti-δ-PKC antibodies and probed for the presence of annexin V at the combined molecular weight of about 110 kD.
CHO-K1 cells (available through the ATCC) were grown in F-12 (HAM) nutrient mixture supplemented with GLUTAMAX, 10% fetal bovine serum, and antibiotics (100 units/ml penicillin and […] streptomycin sulfate, all from Invitrogen Corp.). The cells were cultured at 37° C. under 5% CO2. At 48 hours prior to the study, the cells were serum starved. They were stimulated with 10 nM phorbol 12-myristate 13-acetate (PMA) (available through LC Laboratories) or with 5 mM H2O2 (available through Sigma Chemical Corp.) for the indicated duration ranging from about 30 seconds to about 5 minutes, a technique well-known to one of skill in the art. The cells were washed with cold PBS, and homogenized on ice with trituration in homogenization buffer (20 mM Tris pH 7.4, 2 mM EDTA, 10 mM EGTA, 0.25M sucrose, 12 mM β-mercaptoethanol, protease inhibitor cocktail (available through Sigma Chemical Corp)), 0.1% TRITON X-100, and 1% formaldehyde.
It was observed that the 0.1% TRITON extracts all of the translocatable PKC from the cell. After 30 min at 4° C., the lysates were quenched with 0.14M glycine for 20 min at 4° C., and the samples were spun at 14K rpm at 4° C. The supernatant was incubated with 1 μg anti-δ-PKC antibody (available through Santa Cruz Biotechnology) for 1 hour, followed by exposure to protein-G beads (available through Invitrogen Corp.) for 3 hours at 4° C. The beads were then washed with wash buffer (20 mM Tris pH 7.5, 2 mM EDTA, 100 mM NaCl, 12 mM β-mercaptoethanol, 0.1% TRITON), and separated on 7.5% SDS-PAGE, transferred to nitrocellulose, and probed with anti-annexin V (available through Santa Cruz Biotechnology), followed by visualization using an enhanced chemiluminescence (ECL) method.

δ-PKC [1] = experiment: PMA-induced translocation of δ-PKC from soluble to particulate fraction in CHO cells; type: cell-based, hamster; details: 1 μM peptide pretreatment, 5 minutes of PMA stimulation
Protocol: (§1) The CHO cells of Example 1 were fractionated, stimulated, and washed with cold PBS, scraped in homogenization buffer, and spun at 100,000 g for 30 min at 4° C., resulting in the soluble fraction. The pellet was then resuspended in a homogenization buffer with 1% TRITON X-100, and spun under the same conditions. Where applicable, the cells were pre-incubated with 1 μM peptide for 15 minutes prior to stimulation. The samples were then analyzed using a Western blot, and the loading was corrected for protein concentration using an internal control such as actin.

ε-PKC = experiment: PMA-induced translocation of ε-PKC in CHO cells; type: cell-based, hamster; details: peptide pretreatment
Protocol: as §1

δ-PKC/annexin V = δ-PKC/annexin V binding ELISA assay
δ-PKC [2] = experiment: real-time confocal imaging of YFP-δPKC translocation in CHO cells; type: cell-based, hamster; details: 10 μM pretreatment for 30 minutes, 100 nM PMA, vs untreated
Protocol: CHO cells were grown on chambered #1 Borosilicate coverglass (Lab-Tek), transfected at 50% confluency using Fugene 6 (Roche), according to the manufacturer's instructions, with CFP-annexin V and YFP-δPKC cloned into the pECFP-C1 and pEYFP-C1 vectors, respectively (Clontech). The cells were serum starved for 24 hours. Real-time confocal imaging was conducted on a spinning disk Nipkow confocal microscope, and the cells were viewed using an inverted Olympus IX70 microscope with a 40× oil immersion Olympus objective (1.35 NA). Images were acquired using a CCD camera (Hamamatsu) with 2×2 pixel binning. […]
Fluorescence intensity was measured using METAMORPH data analysis software (Universal Imaging). To monitor the translocation of the PKC and the increases in FRET signal, a small region of interest was selected from each cell and fluorescence intensity values were graphed against time and normalized to the initial fluorescence. FRET was calculated using a formula that corrects for bleed-through and donor concentration: FRET=(I(442-530)-αI(442-480)-βI(515-530))/I(442-480). The α and β coefficients were calculated from singly transfected cells, where α=I(442-530)/I(442-480)=47.6% of CFP bleed-through into the YFP channel, and β=I(442-530)/I(515-530)=14.4% of YFP excitation from the CFP channel.

annexin V = target: T1, annexin V (Homo sapiens, UniProt P08758); experiment: overlay binding assay on immobilized annexin V; details: immobilized annexin V on nitrocellulose, overlay 37° C. 30 min, Western blotting
T1 sequence (P08758 1-320): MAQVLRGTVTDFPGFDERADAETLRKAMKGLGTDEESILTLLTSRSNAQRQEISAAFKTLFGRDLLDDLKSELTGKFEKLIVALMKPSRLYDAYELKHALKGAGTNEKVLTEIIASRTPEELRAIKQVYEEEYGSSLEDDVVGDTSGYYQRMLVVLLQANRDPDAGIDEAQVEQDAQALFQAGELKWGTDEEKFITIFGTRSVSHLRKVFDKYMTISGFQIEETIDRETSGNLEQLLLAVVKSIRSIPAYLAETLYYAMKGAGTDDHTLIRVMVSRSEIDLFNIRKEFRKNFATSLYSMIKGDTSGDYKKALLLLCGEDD
Protocol: A binding assay was performed in vitro, using an immobilized annexin V with the δ-PKC, δ-V1 (SEQ ID NO:18) (the C2 domain of δ-PKC), δ-V5 (SEQ ID NO:19), and ε-V1 (SEQ ID NO:20) peptides. These domains are recognized in the art as participating in protein-protein interactions.
10 μg of the annexin V was separated on 12% SDS-PAGE gel and transferred to nitrocellulose, and then cut into strips. The strips were incubated with blocking buffer (50 mM Tris pH 7.5, 200 mM NaCl, 3% bovine serum albumin, 0.1% PEG20). The strips were then incubated in overlay buffer (50 mM Tris pH 7.5, 200 mM NaCl, 1% PEG20, 12 mM β-mercaptoethanol) in the presence where appropriate of 30 μg crude bacterial cell lysate containing fusion proteins of myelin basic protein (MBP)-delta V1 PKC (MBP-δV1), glutathione-S-transferase-delta V5 PKC (GST-δV5), and full length sequences of δ-PKC or rat purified ε-PKC (SEQ ID NO:21) at 37° C. for 30 min. The strips where then washed with wash buffer (50 mM Tris pH 7.5, 200 mM NaCl, 0.1% PEG20, 12 mM β-mercaptoethanol), and then incubated with fixative (0.2% formaldehyde in PBS) and neutralizing solution (0.2M glycine in PBS) at room temperature 20 min each. After washing with buffer, the strips were probed with antibodies according to the overlay protein, and resulting bands were visualized using ECL Western blotting.

isolated rat hearts = experiment: ex vivo model of ischemia and reperfusion in isolated rat hearts; details: 1 μM
Protocol: FIG. 6C compares the infarct sizes that were measured on both sides of the tissue slices and averaged. […] In FIG. 6D, creatine phosphokinase (CPK) release was measured in the heart perfusate during the reperfusion.

LQANRDPD [pAnxV, annexin V-derived peptide, annexin V residues 157-164, conjugated to TAT47-57 carrier peptide]
δ-PKC/annexin V complex formation (immunoprecipitation) (annexin V/δ-PKC complex; peptide pretreatment): blocked
PMA-induced translocation of δ-PKC to the particulate fraction (δ-PKC [1]): blocked
PMA-induced translocation of ε-PKC (ε-PKC): neither peptide affected
δ-PKC/annexin V binding in ELISA (δ-PKC/annexin V): inhibited

COC(=O)Nc1nc2ccc(C(=O)c3cccs3)cc2[nH]1 [nocodazole]
translocation profile of overexpressed δ-PKC (δ-PKC [2]): did not alter the translocation profile

CCCCCCCCCCCCCC(=O)O[C@@H]1[C@@H](C)[C@@]2(O)[C@@H](C=C(CO)C[C@]3(O)C(=O)C(C)=C[C@@H]23)[C@@H]2C(C)(C)[C@]12OC(C)=O [PMA, phorbol 12-myristate 13-acetate]
increase in the amount of annexin V/δ-PKC complex (annexin V/δ-PKC complex; 10 nm PMA, within the first 0.5 minutes of treatment): ~4 fold

δ-V5: V5 domain of δ-PKC (SEQ ID NO:19), used as glutathione-S-transferase fusion (PKVKSPSDYSNFDPEFLNEKPQLSFSDKNLIDSMDQEAFHGFSFVNPKFEQFLDI; left off: a dimerising Fc or GST)
binding to annexin V (annexin V): bind to the annexin V

EpAnxV: pAnxV in which the arginine in annexin V was replaced with the glutamate found in δ-PKC (SEQ ID NO:33) (YGRKKRRQRRRCCLQANEDPD; listed as Homo sapiens)
PMA-induced translocation of ε-PKC (ε-PKC): neither peptide affected
δ-PKC/annexin V binding in ELISA (δ-PKC/annexin V): no significant effect
reduction of infarct size (isolated rat hearts; 10 minutes prior to 30-minute no-flow ischemia and 10 minutes at onset of 60 minutes reperfusion, TTC staining): had no effect
reduction in necrosis (creatine phosphokinase release in heart perfusate) (isolated rat hearts; CPK measured during reperfusion): did not show any statistical difference from the control heart
ischemia-induced δ-PKC-mediated damage to the heart (isolated rat hearts; isolated rat hearts): did not inhibit

OO [H2O2]
association between annexin V and δ-PKC (annexin V/δ-PKC complex; H2O2 5 mM, 0.5-1 minute treatment): transient association
